Entries after “also recorded” stand apart in the source; their conditions may differ. No end group written: not given here.
How the values were obtained:
[1] = tested on: leukocyte (neutrophil) migration into the peritoneum; experiment: Thioglycollate-induced in vivo peritonitis model of leukocyte migration; parameters: species or system mouse; settings: for inhibition of leukocyte infiltration and migration compared to β15-42: (β15-66)2 8.6 mg/kg, (β15-44)2 5.1 mg/kg; for leukocyte migration / number of leukocytes accumulating in the peritoneum: peptide i.v. prior to i.p. thioglycollate, peritoneal lavage at 4 h, versus PBS control
Protocol: We compared their anti-inflammatory effects in an in vivo peritonitis model, a well established mouse model for leukocyte migration into sites of acute inflammation. In this model, leukocyte migration from the circulation into the peritoneum was stimulated by intraperitoneal (i.p.) injection of thioglycollate, and leukocyte (neutrophil) accumulation was evaluated after 4 hours by measuring the cell number in the peritoneal lavage.
Leukocyte (e.g., neutrophil) infiltration is a hallmark of injury associated with ischemia and reperfusion, as well as a number of other inflammatory conditions. Therefore, peptides of the invention are tested to determine the ability to decrease leukocyte infiltration in vivo. The ability to inhibit leukocyte infiltration was tested in an in vivo model of peritonitis, which is a well established mouse model for leukocyte infiltration and migration into sites of inflammation. The protocol for this animal model is described as below. Experiments were performed consistent with accepted practice (see, for example, Bosse et al. 1994. Eur. J. Immunol. 24: 3019; Borges et al. 1997. Blood 90: 1934; US Patent Application Publication No. 20030105020). To induce peritonitis, thioglycollate was administered intraperitoneally (i.p.) to mice. For inhibition studies, mice were injected intravenously (i.v.) with either β15-42, (β15-44)2, or (β15-66)2 prior to i.p. injection of thioglycollate (FIG. 4). Control mice were treated with the same volume of PBS. All reagents are kept endotoxin-free. At 4 h after injection of thioglycollate, mice were sacrificed and the peritoneal lavage was generated by, for example, injecting 10 ml PBS, massaging the peritoneal wall, and removing the fluid. Following the peritoneal lavage, leukocytes were quantified (e.g., neutrophil quantification determined using a hemocytometer).

ischemic myocardium = experiment: Coronary artery ligation mouse model of myocardial infarction (ischemia and reperfusion); format: in vivo; settings: MI mice, i.v., about 16 nanomoles
Source text: To confirm the ability of (β15-66)2, (β15-44)2, (β15-40)2, (β15-35)2, and β15-42 to protect (with the former peptides showing increased protection over β15-42) against injury following ischemia and reperfusion an animal model of myocardial infarction (MI) is employed. The effect of the β15-42, (β15-66)2, (β15-44)2, (β15-40)2, and (β15-35)2 (and other fibrin beta chain derived peptides of the invention) on the protection and infiltration and migration of leukocytes into the ischemic myocardium is determined by, for example, using a coronary artery ligation mouse model of MI. To determine the efficacy of these peptides to protect against injury and inhibit leukocyte infiltration and migration into the myocardium following ischemia a fibrin beta chain derived peptide is administered (for example, at a dose of about 16 nanomoles, which can be adjusted accordingly to determine efficacy) i.v. into 8-12 week-old C57BL6 mice (20 to 25 g), for example, prior to left anterior descending (LAD) coronary artery ligation, upon reperfusion, or after reperfusion. Mice injected with PBS are used as controls. […] Administration can be adjusted based on, for example, pharmacodynamic and pharmacokinetic properties.
The study may comprise at least 7 different groups: sham-operated control (group #1), MI mice with no treatment (group #2), and MI mice treated with β15-42 (group #3), (β15-66)2 (group #4), (β15-44)2 (group #5), (β15-40)2 (group #6), and (β15-35)2 (group #7). To ensure objectivity, these experiments are conducted in a double-blind and placebo-controlled manner. Thus, β15-42, (β15-66)2, (β15-44)2, (β15-40)2, (β15-35)2, and PBS are assigned randomly to a reference number, which is blinded to the personnel involved in conducting the surgery and performing post-surgery analysis. […] Leukocyte infiltration into the ischemic myocardium is determined by H&E staining and cardiomyocyte apoptosis is determined by TdT-mediated dUTP Nick-End Labeling (TUNEL) staining. […]

VE-cadherin [2] = experiment: Surface plasmon resonance binding of peptides to immobilized VE-cadherin fragment; settings: for affinity to VE-cadherin (in words): comparison between peptides; for binding to VE-cadherin: added at 400 nM
Protocol: To test binding activities of fibrin beta chain derived peptides of the invention to VE-caherin, surface plasmon resonance (SPR) methods are, for example, used. SPR experiments are performed using, for example, a BIAcore 3000 biosensor (BIAcore AB, Uppsala, Sweden), which can be used to measure the association/dissociation of peptides or proteins in real-time (see, for example, Karlsson, R., and Falt, A. J. Immunol. Methods (1997) 200, 121-133; Hall, D. Anal. Biochem. (2001) 288, 109-125; see also Gorlatov et al. Biochemistry (2002) 41, 4107-4116 for other VE-cadherin binding assays including, for example, SPR IAsys Analysis based assays and ELISA based assays). An exemplary method is described in the following passage. VE-cadherin fragment is covalently coupled via epsilon-amino groups to the activated surface of a CM5 biosensor chip by the procedure described by, for example, Karlsson, R., and Falt, A. (J. Immunol. Methods (1997) 200, 121-133; see also Gorlatov et al. Biochemistry (2002) 41, 4107-4116). Briefly, the carboxyl groups on the sensor surface were activated with an injection of a solution containing, for example, 0.2 M N-ethyl-N-(3-diethylamino-propyl) carbodiimide and 0.05 M N-hydroxysuccinimide. VE-cadherin to be coupled is prepared in 10 mM sodium-acetate buffer, pH 4.0, containing 1 mM CaCl2, and injected onto the activated CM5 surface at 5 mL/min followed by incubation for 7 min after which the surface was deactivated by passing 1 M ethanolamine. Activation time, ligand concentration, and contact time are adjusted to achieve a coupling density of 5-6 ng/mm2. Binding experiments are performed, for example, in 10 mM Hepes buffer, pH 7.4, containing 200 mM NaCl, 1 mM CaCl2, 0.02% NaN3, and 0.05% n-octyl beta-D-glucopyranoside (binding buffer). Samples comprising, for example, fibrin beta chain derived peptides β15-42, β15-64, and (β15-66)2, at different concentrations are injected in duplicate in at least three separate experiments and the association/dissociation between the immobilized and the added peptides is monitored as the change in the SPR response. To regenerate the chip, complete dissociation of the complex was achieved by adding, for example, 20 mM Tris buffer, pH 7.5, containing 0.5 M urea, 0.5 M NaCl, and 0.5% Triton X-100, for 1 min following reequilibration with binding buffer. Experimental data are analyzed using, for example, BIAevaluation 3.0 software supplied with the instrument. Briefly, kinetic constants, kass and kdis, are estimated by global analysis of the association/dissociation curves to the 1:1 Langmurian interaction model (Morton, T. A., and Myszka, D. G. Methods Enzymol. (1998) 295, 268-294). The dissociation equilibrium constant (Kd) is calculated as Kd=kdiss/kass. It is also noted that other methods known to one of ordinary skill in the art can be used to determine binding activities of fibrin beta chain derived peptides of the invention to VE-caherin including, for example, ELISA-based methods (see, for example, Gorlatov et al. Biochemistry (2002) 41, 4107-4116).

[3] = tested on: myocardial ischemia-reperfusion injury; settings: acute or chronic rat models; cited from earlier work
VE-cadherin [4] = biological target: T1, VE-cadherin (Homo sapiens, UniProt P33151); settings: cited from earlier work
T1 sequence (P33151 48-784): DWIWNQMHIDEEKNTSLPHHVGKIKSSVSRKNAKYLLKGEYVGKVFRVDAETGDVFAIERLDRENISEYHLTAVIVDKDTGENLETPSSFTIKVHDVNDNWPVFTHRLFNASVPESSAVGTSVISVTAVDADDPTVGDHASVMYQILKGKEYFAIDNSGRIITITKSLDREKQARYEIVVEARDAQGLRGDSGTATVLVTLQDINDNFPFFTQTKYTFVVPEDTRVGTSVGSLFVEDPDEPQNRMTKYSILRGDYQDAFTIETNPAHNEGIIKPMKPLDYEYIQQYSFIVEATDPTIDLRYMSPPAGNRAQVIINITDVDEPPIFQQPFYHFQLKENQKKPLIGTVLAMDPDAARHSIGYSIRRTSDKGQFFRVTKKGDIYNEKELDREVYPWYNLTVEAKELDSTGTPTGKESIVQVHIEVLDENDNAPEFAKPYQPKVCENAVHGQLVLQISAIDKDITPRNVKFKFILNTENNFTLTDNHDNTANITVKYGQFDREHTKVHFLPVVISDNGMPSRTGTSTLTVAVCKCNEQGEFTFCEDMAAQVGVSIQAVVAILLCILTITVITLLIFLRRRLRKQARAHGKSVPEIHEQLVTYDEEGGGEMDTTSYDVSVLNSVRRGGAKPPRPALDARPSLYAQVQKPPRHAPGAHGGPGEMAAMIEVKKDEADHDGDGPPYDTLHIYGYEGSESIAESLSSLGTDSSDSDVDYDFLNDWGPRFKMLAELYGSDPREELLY

Substance	inhibition of leukocyte infiltration and migration compared to β15-42 ([1]; peritonitis model, 4 h)	efficacy compared to β15-42 (ischemic myocardium)	affinity to VE-cadherin (in words) (VE-cadherin [2])	leukocyte migration / number of leukocytes accumulating in the peritoneum [1]	binding to VE-cadherin (VE-cadherin [2])	further results
(β15-35)2: dimer; monomer GHRPLDKKREEAPSLRPAYCG (SEQ ID NO:7) (GHRPLDKKREEAPSLRPAYCG; also: disulfide-linked homodimer)	even further inhibit leukocyte infiltration and migration	increased efficacy	even higher affinity			affinity to VE-cadherin compared to both (β15-44)2 and (β15-40)2 (VE-cadherin [2]; FIG. 3): unexpectedly higher degree of affinity
(β15-40)2: dimer; monomer GHRPLDKKREEAPSLRPAPPPISYCG (SEQ ID NO:6) (GHRPLDKKREEAPSLRPAPPPISYCG; also: disulfide-linked homodimer)	even further inhibit leukocyte infiltration and migration	increased efficacy	even higher affinity			
(β15-44)2: synthetic dimer; monomer GHRPLDKKREEAPSLRPAPPPISGGGYRCG (SEQ ID NO:5), Cys43-Cys43 disulfide bond (GHRPLDKKREEAPSLRPAPPPISGGGYRCG; also: Cys43-Cys43 disulfide homodimer)	almost twice as much	increased efficacy	comparable to that of (β15-66)2; also recorded: even higher affinity	inhibits leukocyte migration		number of leukocytes compared to β15-44 ([1]; peritonitis model, 4 h): decrease in the number of leukocytes; inhibitory effect on leukocyte transmigration compared to (β15-66)2 ([1]; peritonitis model, FIG. 4): superior
thymosin β4 (SDKPDMAEIEKFDKSKLKKTETQEKNPLPSKETIEQEKQAGES; Thymosin beta-4; UniProt P62328 2-44, looked up) [TB4]				inhibits leukocyte migration		
β15-42: peptide which includes amino acid residues 15-42 of the fibrin β chain (GHRPLDKKREEAPSLRPAPPPISGGGYR) [reference compound]			weak	significantly lower; also recorded: inhibits leukocyte migration	very little binding	myocardial inflammation and infarct size [3]: substantially reduced; competition with fibrin for the interaction with VE-cadherin (VE-cadherin [4]): competes with fibrin for the interaction with VE-cadherin
β15-64: monomeric fibrin β chain residues 15-64 (fibrin βN-domain) [reference compound]					very little binding	

Source: US8722623B2, “Compositions and methods utilizing fibrin beta chain fragments” (University of Maryland, Baltimore, priority 2007, dated 2014)
